Measured values: patent US20240124445A1, “BENZENE RING COMPOUND AND USE THEREOF” (NANJING SHIJIANG MEDICINE TECHNOLOGY CO., LTD, priority 2020, published 2024)
Where two headings read alike, the source gives them in different places.

Tested on: NCI-H82 cell
Experiment: Cell viability (Promega CellTiter-Glo) of NCI-H82 cell
Type: cell-based
Conditions: Homo sapiens
Experimental: Cell viability was detected using the Promega CellTiter-Glo kit, the kit reflected cell viability by directly measuring intracellular ATP content. Small cell lung cancer cell NCI-H82 (ATCC, No. HTB-175) was cultured in 10% fetal bovine serum-containing RPMI1640 medium (+P/S).
Cell viability was detected using the Promega CellTiter-Glo kit, the kit reflected cell viability by directly measuring intracellular ATP content.
Daoy cell was cultured in 10% fetal bovine serum-containing DMEM medium (+P/S), and NCI-H82 cell was cultured in 10% fetal bovine serum-containing RPMI1640 medium (+P/S).
Cell viability was detected using the Promega CellTiter-Glo kit, the kit reflected cell viability by directly measuring intracellular ATP content. In the experiment, the IC50 value of different compounds on different tumor cell lines was detected to determine cell lines that were sensitive or insensitive to different compounds.
Tumor cells were cultured in 10% FBS-containing medium (+p/s), and incubated for 3 h or the following day, then the gradient diluted compound was added. After 3 days of culture, the relevant IC50 (50% inhibiting concentration) was measured. The name, source and culture conditions of each tumor cell line were as follows:
Cell line NCI-H82 (ATCC, No. HTB-175) was cultured in 10% fetal bovine serum-containing RPMI1640 medium (+P/S).

[1] = NCI-H82 cell, Table 1, read-out: IC50

Structure (SMILES)	IC50 [1] [µM]	IC50 (NCI-H82) [µM]
COc1ccc(C(=O)C[n+]2ccc(NCc3ccccc3)cc2)cc1 [AB24803A]	0.23	–
CC(C)(C(=O)c1ccc(Cl)cc1)[n+]1ccc(NCc2ccccc2)cc1 [AB24813]	5.93	–
CC(Nc1cc[n+](CC(=O)c2ccc(Cl)cc2)cc1)c1ccccc1 (stereo not shown) [AB24814]	5.54	–
O=C(C[n+]1ccc(NCc2ccccc2)cc1)c1ccc(Cl)nc1 [AB24817]	4.61	–
Cc1cnc(C(=O)C[n+]2ccc(NCc3ccccc3)cc2)cn1 [AB24821]	7.17	–
O=C(C[n+]1ccc(NCc2ccccn2)cc1)c1ccc(Cl)cc1 [AB24822]	6.7	–
O=C(C[n+]1ccc2[nH]c(Cc3ccccc3)cc2c1)c1ccc(Cl)cc1 [AB24827A]	–	2.89
O=C(C[n+]1ccc2cc(Cc3ccccc3)[nH]c2c1)c1ccc(Cl)cc1 [AB24828A]	–	5.79
O=C(C[n+]1ccc2cc(-c3ccccc3)[nH]c2c1)c1ccc(Cl)cc1 [AB24831A]	–	5.41
O=C(C[n+]1ccc2c(Cc3ccccc3)c[nH]c2c1)c1ccc(Cl)cc1 [AB24835A]	–	2.75
O=C(C[n+]1ccc2c(c1)CCC(c1ccccc1)N2)c1ccc(Cl)cc1 (stereo not shown) [AB24838]	0.71	–
O=C(C[n+]1ccc2c(c1)C=CCC(c1ccccc1)N2)c1ccc(Cl)cc1 (stereo not shown) [AB24839B]	9.13	–
Cc1ccc(C(=O)Cn2cnc(/C=C/c3ccccc3)c2)cc1 [AB24850]	5.78	–
Cc1ccc(C(=O)C[n+]2csc(NCc3ccccc3)c2)cc1 [AB24851]	6.57	–
Cc1ccc(C(=O)C[n+]2ccc3c(Cc4cccc(Cl)c4)c[nH]c3c2)cc1 [AB24854]	1.57	–
Cc1ccc(C(=O)C[n+]2ccc3c(Cc4ccccc4)c[nH]c3c2)cc1 [AB24859]	2.29	–
Cc1ccccc1C(=O)C[n+]1ccc2c(Cc3ccccc3)c[nH]c2c1 [AB24861]	4.09	–
O=C(C[n+]1ccc2c(Cc3ccccc3)c[nH]c2c1)c1ccc([N+](=O)[O-])cc1 [AB24863]	–	3.61
Cc1ccc(C(=O)C[n+]2ccc3c(-c4cccc(C)c4)c[nH]c3c2)cc1 [AB24872]	1.24	–
O=C(C[n+]1ccc2c(-c3ccccc3)c[nH]c2c1)c1cccc([N+](=O)[O-])c1 [AB24878]	3.58	–
O=C(Nc1ccc([N+](=O)[O-])cc1)c1ccc(NCc2ccccc2)cc1 [AB24883]	6.37	–
Cc1ccc(C(=O)C[n+]2ccc3c(c2)ncn3Cc2ccccc2)cc1 [AB24885]	3.13	–
Cc1ccc(C(=O)C[n+]2ccc3c(ccn3Cc3ccccc3)c2)cc1 [AB24887]	0.29	–
O=C(C[n+]1ccc2c(ccn2Cc2ccccc2)c1)c1cccc([N+](=O)[O-])c1 [AB24888]	0.85	–
Cc1ccc(C(=O)C[n+]2ccc3ccn(Cc4ccccc4)c3c2)cc1 [AB24945]	–	4.22

More lines, main results first:

IC50 [1] [µM]	Structure (SMILES)	IC50 (NCI-H82) [µM]
2.09	Cc1ccc(C(=O)C[n+]2ccc3c(ccn3-c3ccccc3)c2)cc1 [AB24895]	–
6.28	O=C(C[n+]1ccc2c(-c3ccccc3)n[nH]c2c1)c1cccc([N+](=O)[O-])c1 [AB24898]	–
3.22	Cc1cccc2c1C(=O)C([n+]1ccc(NCc3ccccc3)cc1)C2 (stereo not shown) [AB24904]	–
2.52	Cc1ccc2c(c1)C(=O)C([n+]1ccc(NCc3ccccc3)cc1)C2 (stereo not shown) [AB24905]	–
1.66	Cc1ccc2c(c1)CC([n+]1ccc(NCc3ccccc3)cc1)C2=O (stereo not shown) [AB24906]	–
0.38	Cc1ccc2c(c1)C(=O)C([n+]1ccc(NCc3ccccc3)cc1)CC2 (stereo not shown) [AB24916]	–
0.12	Cc1ccc2c(c1)CCC([n+]1ccc(NCc3ccccc3)cc1)C2=O (stereo not shown) [AB24917]	–
1.01	O=C1c2cc([N+](=O)[O-])ccc2CCC1[n+]1ccc(NCc2ccccc2)cc1 (stereo not shown) [AB24920]	–
6.85	O=C1c2ncccc2CCC1[n+]1ccc(NCc2ccccc2)cc1 (stereo not shown) [AB24923]	–
3.96	O=C1c2cnccc2CCC1[n+]1ccc(NCc2ccccc2)cc1 (stereo not shown) [AB24924]	–
3.96	CC(C)c1c[nH]c2c[n+](CC(=O)c3cccc(Cl)c3)ccc12 [AB24938]	–
0.1	O=C1c2cc(F)ccc2CCC1[n+]1ccc(NCc2ccccc2)cc1 (stereo not shown) [AB24948]	–
